Test results: patent US20190336498A1, “METHODS AND COMPOSITIONS FOR THE TREATMENT OF CUSHING'S SYNDROME USING 2S, 4R KETOCONAZOLE” (STRONGBRIDGE DUBLIN LIMITED, priority 2014, published 2019)

Legend:
[1] = Pharmacokinetics of the enantiomers in humans after oral administration of ketoconazole; assay type: in vivo; conditions: following oral administration of ketoconazole (racemic)
Source text: Reduced hepatic exposure to the 2S,4R enantiomer may be of value in reducing the liver function abnormalities observed following administration of racemic ketoconazole.

QTc interval = QTc interval prolongation; conditions: in vivo
Source text: The potential risk of protracted, drug induced prolongation of the QTc interval on the ECG is the development of an arrhythmia called torsade de pointes. […] Subjects with CS may have greater than normal QTc intervals and treatment that reduces cortisol levels may result in reductions in QTc intervals.

corticosterone = conditions: rats; vs the other enantiomers or racemic ketoconazole; cited from earlier work
cholesterol = conditions: vs the other enantiomer; cited from earlier work
14-α-demethylase = target: T1, 14-α-demethylase (Rattus norvegicus, UniProt Q64654); conditions: comparison in words; cited from earlier work
T1 sequence (Q64654 1-503): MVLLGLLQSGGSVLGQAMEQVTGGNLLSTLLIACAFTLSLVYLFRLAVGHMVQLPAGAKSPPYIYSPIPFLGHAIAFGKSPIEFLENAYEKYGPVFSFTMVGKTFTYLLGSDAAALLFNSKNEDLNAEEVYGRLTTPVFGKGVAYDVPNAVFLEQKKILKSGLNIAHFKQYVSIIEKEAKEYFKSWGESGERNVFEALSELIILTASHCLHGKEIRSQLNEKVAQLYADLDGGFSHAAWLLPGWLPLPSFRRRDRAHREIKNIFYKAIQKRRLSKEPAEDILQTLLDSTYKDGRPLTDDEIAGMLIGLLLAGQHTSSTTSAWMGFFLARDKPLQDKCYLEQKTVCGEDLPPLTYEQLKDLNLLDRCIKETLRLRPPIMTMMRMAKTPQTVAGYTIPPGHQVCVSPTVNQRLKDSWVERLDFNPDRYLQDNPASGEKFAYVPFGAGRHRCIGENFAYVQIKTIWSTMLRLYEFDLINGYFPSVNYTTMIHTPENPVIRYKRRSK

C-reactive protein (CRP) = conditions: clinical study; cited from earlier work
[2] = Safety and tolerability in healthy volunteers and subjects with Type 2 Diabetes Mellitus; assay type: in vivo, human; conditions: 200 mg to 600 mg QD for up to 14 days and 150 mg to 450 mg for up to 4 months; healthy volunteers and T2DM subjects
11-β-hydroxylase = conditions: comparison in words; cited from earlier work
Cushing's syndrome = conditions: off-label, titrated to effect; cited from earlier work

CC(=O)N1CCN(c2ccc(OC[C@@H]3CO[C@@](Cn4ccnc4)(c4ccc(Cl)cc4Cl)O3)cc2)CC1 (racemic) [2S,4R ketoconazole enantiomer]
blood concentrations of the 2S,4R enantiomer exceed those of the 2R,4S enantiomer [1]: approximately 3 fold
prolongation of QTc intervals (QTc interval): capability to prolong QTc intervals in a dose (concentration) related manner
potency with respect to reducing corticosterone (corticosterone): more potent
reduction of cholesterol (cholesterol): appeared to reduce cholesterol more than the other enantiomer
IC50 toward a key enzyme in cholesterol synthesis (14-α-demethylase) compared with the other enantiomer (14-α-demethylase): significantly lower IC50
reduction in C-reactive protein (CRP) levels (C-reactive protein (CRP)): dose response reduction
safety and tolerability [2]: generally safe and well tolerated
IC50 toward the key enzyme in cortisol synthesis (11-α-hydroxylase) compared with the other enantiomer (11-β-hydroxylase): significantly lower IC50
IC50 toward the key enzyme in cortisol synthesis (11-β-hydroxylase) compared with the other enantiomer (11-β-hydroxylase): significantly lower IC50

CC(=O)N1CCN(c2ccc(OCC3COC(Cn4ccnc4)(c4ccc(Cl)cc4Cl)O3)cc2)CC1 (racemic) [racemic ketoconazole, reference compound]
reduction in C-reactive protein (CRP) levels (C-reactive protein (CRP)): no reduction
therapeutic success rate in CS (Cushing's syndrome): 50-70%
